# Laboratory results taken from PubChem BioAssay (NCI).
# Values joined by “and” are separate entries in the source; they are usually repeats but may differ in a detail not shown here. Equal values may be shown once.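 Where inhibition never reached the appropriate level, the endpoint shown equals the highest concentration tested. Otherwise, values were interpolated linearly from a five-concentration, 48-hour dose response in 96-well plates. GI50: concentration for 50% inhibition of growth. TGI marks complete inhibition of growth.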
# Experiments:
# Experiment in all cases: NCI tumour cell line growth inhibition, 48 h
# ACHN renal = system: ACHN renal
# COLO 205 colon = system: COLO 205 colon
# KM12 colon = system: KM12 colon
# LOX IMVI melanoma = system: LOX IMVI melanoma
# NCI/ADR-RES ovarian = system: NCI/ADR-RES ovarian
# RPMI-8226 leukemia = system: RPMI-8226 leukemia
# SF-539 CNS = system: SF-539 CNS
# SNB-75 CNS = system: SNB-75 CNS
# U251 CNS = system: U251 CNS
# EKVX NSCLC = system: EKVX NSCLC
Compound,GI50 (ACHN renal),TGI (ACHN renal),GI50 (COLO 205 colon),TGI (COLO 205 colon),GI50 (KM12 colon),TGI (KM12 colon),GI50 (LOX IMVI melanoma),TGI (LOX IMVI melanoma),GI50 (NCI/ADR-RES ovarian),TGI (NCI/ADR-RES ovarian),GI50 (RPMI-8226 leukemia),TGI (RPMI-8226 leukemia),GI50 (SF-539 CNS),TGI (SF-539 CNS),GI50 (SNB-75 CNS),TGI (SNB-75 CNS),GI50 (U251 CNS),TGI (U251 CNS),GI50 (EKVX NSCLC),TGI (EKVX NSCLC)
Cc1nn(-c2ccccc2)c2c1C1C(=C(c3ccc(Cl)cc3)N2)C(=O)Nc2ccccc21 (centres undefined),3.51 µM,> 100 µM,2.49 µM,5.63 µM,3.6 µM,20.8 µM,3.54 µM,12 µM,4.32 µM,> 100 µM,2.17 µM,4.77 µM,3.15 µM,12.9 µM,3.9 µM,96.3 µM,2.98 µM,12.3 µM,,
C[C@@H](NC(=O)Cc1cc(F)cc(F)c1)C(=O)N[C@@]1(C)N=C(c2ccccc2)c2ccccc2N(C)C1=O,> 84.5 µM,> 100 µM,47.2 µM,> 100 µM,41.3 µM,> 100 µM,45.7 µM,> 100 µM,31.9 µM,> 90.7 µM,2.11 µM,10.5 µM,> 56 µM,> 100 µM,> 95.3 µM,> 100 µM,> 84.8 µM,> 100 µM,30.2 µM,> 85.8 µM
N#CC1c2ccccc2-c2ccccc2N1C(=O)c1ccccc1 (centres undefined),4.05 µM,> 100 µM,1.56 µM,3.67 µM,1.16 µM,4.17 µM,2.81 µM,> 94.3 µM,1.81 µM,> 100 µM,0.903 µM,5.32 µM,2.29 µM,7.05 µM,2.43 µM,> 49.4 µM,2.68 µM,> 46.7 µM,7.2 µM,> 100 µM
Cn1c(=O)n(-c2ccc(C(C)(C)C#N)cc2)c2c3cc(-c4cnc5ccccc5c4)ccc3ncc21,< 0.0121 µM and 0.00573 µM and < 0.01 µM,> 100 µM,0.0231 µM and 0.00593 µM,0.702 µM and 0.938 µM,0.0134 µM and 0.00683 µM and 0.0153 µM,1.28 µM and > 10 µM,< 0.01 µM and 0.00522 µM,> 100 µM,0.0212 µM and 0.00849 µM and 0.0197 µM,> 100 µM,< 0.0116 µM and 0.00603 µM and < 0.0114 µM,0.385 µM and 3.13 µM and 1.24 µM,< 0.01 µM and 0.00503 µM,0.0761 µM and 0.0316 µM and 0.118 µM,< 0.001 µM,0.0464 µM and 0.0263 µM,< 0.0117 µM and 0.00599 µM and < 0.01 µM,10.4 µM and > 10 µM and > 100 µM,0.0152 µM and 0.00573 µM and < 0.012 µM,
CC[C@@]1(OC(=O)CN)C(=O)OCc2c1cc1n(c2=O)Cc2cc3cc(N)ccc3nc2-1,< 0.01 µM,0.151 µM,0.287 µM,2.22 µM,0.12 µM,0.811 µM,< 0.01 µM,0.103 µM,< 0.0103 µM,0.125 µM,,,< 0.01 µM,0.0126 µM,< 0.017 µM,,< 0.01 µM,,0.465 µM,> 100 µM
O=C1c2cccnc2C(=O)c2c1c(C(=O)OCCCN1CCOCC1)c1ccccn21,,,0.0553 µM,0.308 µM,0.0333 µM,15.4 µM,< 0.01 µM,0.0152 µM,< 0.01 µM,2.21 µM,0.0252 µM,1.13 µM,< 0.01 µM,0.0372 µM,< 0.01 µM,0.015 µM,,,0.0758 µM,1.75 µM
O=C1c2ccccc2-c2cc3ccccc3c(=O)n21,,> 100 µM,,> 100 µM,,> 100 µM,,> 100 µM,,> 100 µM,,> 100 µM,,> 100 µM,,> 100 µM,,,,> 100 µM
CCOC(=O)c1[nH]c2c(c1C)-c1[nH]c(=O)c(S(=O)(=O)c3ccccc3)cc1SC2,47.3 µM,> 100 µM,22.5 µM,46.4 µM,38.5 µM,> 100 µM,,,52.9 µM,> 100 µM,44 µM,> 100 µM,30.6 µM,> 100 µM,24.8 µM,86.6 µM,31.1 µM,> 100 µM,38.8 µM,> 100 µM
CCN(CC)CCC(=O)Nc1ccc(Cn2nnc3c2C(=O)c2nnn(Cc4ccc(NC(=O)CCN(CC)CC)cc4)c2C3=O)cc1,12.5 µM,34.1 µM,0.175 µM,0.333 µM,0.728 µM,2.46 µM,0.232 µM,0.703 µM,> 100 µM,> 100 µM,0.53 µM,3.15 µM,0.295 µM,0.821 µM,0.314 µM,0.88 µM,0.254 µM,0.688 µM,1.54 µM,3.05 µM
COc1ccc2c(c1O)[C@@]13C=C(O)C(=O)C=C1[C@@H](C2)N(C)CC3,,> 100 µM,,> 100 µM,,> 100 µM,,> 100 µM,,> 100 µM,,> 100 µM,,,,> 100 µM,,> 100 µM,,> 100 µM
c1ccc2c(c1)nc(NCCN1CCNCC1)c1c3ccccc3[nH]c21,0.369 µM,2.38 µM,0.346 µM,1.87 µM,0.369 µM,2.56 µM,0.295 µM,1.03 µM,1.52 µM,7.63 µM,,0.399 µM,0.616 µM,2.2 µM,1.44 µM,2.86 µM,0.377 µM,1.94 µM,0.742 µM,4.38 µM
CC1Cc2c(N(C)C)ncnc2N(C)c2ccc(Cl)cc21 (centres undefined),7.59 µM,> 100 µM,2.44 µM,6.55 µM,3.15 µM,> 100 µM,6 µM,27.2 µM,2.4 µM,23.9 µM,3.53 µM,17.3 µM,2.93 µM,12.2 µM,2.02 µM,8.52 µM,4.99 µM,29.1 µM,2.77 µM,> 100 µM
Nc1ncnc2occ(-c3ccc(NC(=O)Nc4cc(C(F)(F)F)cc(C(F)(F)F)c4)cc3)c12,2.94 µM,12.6 µM,4.23 µM,7.96 µM,0.0916 µM,3.95 µM,3.27 µM,6.83 µM,3.44 µM,9.07 µM,3.68 µM,16.4 µM,1.06 µM,5.44 µM,1.42 µM,4.88 µM,3.28 µM,6.64 µM,3.16 µM,8.07 µM
CN1C(=O)c2cc(Cl)nc3c(NC(=O)c4cccc(Cl)c4)c(Cl)c(NC(=O)c4cccc(Cl)c4)c1c23,1.72 µM,3.09 µM,1.94 µM,4.01 µM,3.44 µM,15.5 µM,1.21 µM,2.58 µM,3.38 µM,17.3 µM,3.63 µM,32.6 µM,1.67 µM,3.39 µM,1.45 µM,2.84 µM,1.82 µM,3.24 µM,1.85 µM,4.21 µM
CC1(C)N=C(N)N=C(N)N1c1ccc(OCC(=O)Nc2cccc(S(=O)(=O)F)c2)c(Cl)c1,,> 100 µM,,> 100 µM,,> 95 µM,,> 100 µM,,> 100 µM,,> 100 µM,,> 100 µM,,> 100 µM,,> 100 µM,,
CCCC/C(=N\N=C(N)N)c1ccc(F)cc1,5.33 µM,17.5 µM,1.78 µM,3.41 µM,2.79 µM,14 µM,1.33 µM,13.5 µM,2.38 µM,8.29 µM,2.67 µM,17.4 µM,2.77 µM,8.59 µM,2.36 µM,12.5 µM,2.36 µM,10.2 µM,4.5 µM,25.5 µM
COc1cc(C(c2cc3c(cc2O)OCO3)N2CCCC2)cc(OC)c1OC (centres undefined),,28.8 µM,,26.5 µM,,37.2 µM,,31.9 µM,,56.4 µM,,41.5 µM,,,,32.7 µM,,37.8 µM,,30 µM
C/C(=C(/c1ccc(O)cc1)c1ccc(OCCN2CCCC2)cc1)c1ccccc1,4.28 µM,16.3 µM,1.7 µM,3.38 µM,3.51 µM,13.2 µM,1.72 µM,3.29 µM,4.17 µM,18.3 µM,2.4 µM,6.72 µM,1.81 µM,3.76 µM,3.07 µM,15.7 µM,2.24 µM,5.49 µM,2.46 µM,11.5 µM
O=C(N[C@@H]1CCCc2ccccc21)[C@H](CCC(=O)N1CCN(C2CCCCC2)CC1)N1C(=O)[C@@H](N2C(=O)OC[C@@H]2c2ccccc2)[C@H]1/C=C/c1ccccc1,2.78 µM,22.1 µM,1.59 µM,3.52 µM,2.62 µM,11.6 µM,1.68 µM,3.41 µM,2.78 µM,10.6 µM,1.54 µM,5.34 µM,1.74 µM,3.42 µM,1.32 µM,4.19 µM,2.2 µM,5.42 µM,2.52 µM,> 100 µM
CCCCCCCCCCCCCCCC[N+]1(CC)CCCC1,1.33 µM,4.43 µM,0.291 µM,0.731 µM,0.73 µM,2.04 µM,0.162 µM,0.454 µM,12.9 µM,38.4 µM,,,0.683 µM,1.98 µM,0.247 µM,1.11 µM,0.363 µM,1.35 µM,,
O=C1C=C(Nc2cccc(Br)c2)c2ccccc2C1=O,0.957 µM,> 100 µM,> 100 µM,> 100 µM,4.13 µM,> 100 µM,4.35 µM,21.5 µM,10.8 µM,51.6 µM,22.2 µM,> 100 µM,1.93 µM,4.56 µM,0.39 µM,5.01 µM,2.74 µM,22.1 µM,,
COc1cc(C2C3=C(COC3=O)N(CCO)c3cc4c(cc32)CCC4)cc(OC)c1O (centres undefined),0.706 µM,> 32.5 µM,0.229 µM,2.16 µM,0.121 µM,5.52 µM,0.187 µM,> 32.5 µM,2.45 µM,> 21 µM,0.838 µM,> 32.5 µM,0.136 µM,> 32.5 µM,,,0.145 µM,> 32.5 µM,1.38 µM,> 32.5 µM
COc1ccccc1C(=O)c1cnc(NC2CCN(S(C)(=O)=O)CC2)nc1N,4.68 µM,> 25 µM,4.37 µM,> 15.4 µM,5.74 µM,> 25 µM,6.25 µM,> 25 µM,> 25 µM,> 25 µM,6.57 µM,> 25 µM,4.97 µM,15.2 µM,7.57 µM,> 25 µM,4.06 µM,> 25 µM,,
Cc1ccc([P+](Cc2ccc([N+](=O)[O-])cc2)(c2ccc(C)cc2)c2ccc(C)cc2)cc1,15.8 µM,38.4 µM,1.65 µM,3.95 µM,2.44 µM,10.2 µM,2.32 µM,12.5 µM,68.3 µM,> 100 µM,1.02 µM,4.86 µM,4.06 µM,15.9 µM,1.99 µM,8.77 µM,2.56 µM,12.2 µM,,
CN1CCCC1c1cccnc1.O=C(O)c1ccccc1O.O=C([O-])c1ccccc1[OH2+].O=C([O-])c1ccccc1[OH2+].O=C([O-])c1ccccc1[OH2+].[Mn+2] (centres undefined),> 100 µM,> 100 µM,> 100 µM,> 100 µM,> 100 µM,> 100 µM,> 100 µM,> 100 µM,> 100 µM,> 100 µM,92.7 µM,> 100 µM,,,> 100 µM,> 100 µM,> 100 µM,> 100 µM,> 100 µM,> 100 µM
O=C(Oc1c(I)ccccc1=O)c1ccc([N+](=O)[O-])cc1,,68.5 µM,,27.8 µM,,35.6 µM,,83.2 µM,,> 100 µM,,88 µM,,37.6 µM,,,,57.9 µM,,28.3 µM
O=C(OCc1ccccc1CN1CCOCC1)c1ccc(Br)cc1,,> 100 µM,,> 100 µM,,,,> 100 µM,,> 100 µM,,49.7 µM,,> 100 µM,,> 100 µM,,> 100 µM,,> 100 µM
O=C1OC(c2ccc(O)cc2)(c2ccc(O)cc2)c2cccc3cccc1c23,14.3 µM,27.9 µM,0.737 µM,18.4 µM,10.5 µM,25.2 µM,15.2 µM,34.7 µM,21.9 µM,68.7 µM,18.6 µM,50.5 µM,15.2 µM,29 µM,9.97 µM,27.1 µM,15.6 µM,30.3 µM,,
